Data from patent US20240058288A1, “DRUG COCKTAIL FOR TREATMENT OF PARKINSON'S DISEASE, LEWY BODY DISEASE AND MULTIPLE SYSTEM ATROPHY” (ALETA NEUROSCIENCE, LLC, priority 2021, published 2024).

How the values were obtained:
[1] = test system: human dopaminergic neurons (iCell DopaNeurons); test: MPP+-induced neurotoxicity: cytolysis of iCell DopaNeurons; type: cell-based; conditions: MPP+ 100 μM; Table 8.2 (FIG. 7C); PCI 30 μM
From the text: (§1) We conducted an in vitro study of the drugs in Table 1 to evaluate the neuroprotective effects of 44 conditions of treatment (Table 2, experiments 1-41; 51-53) against MPP+-induced neurodegeneration toxicity on human dopaminergic neurons (iCell® DopaNeurons: iPS cell-derived human midbrain floorplate dopaminergic neurons). Further combinations (Table 2, experiments 42-50 and Table 3) are also disclosed.
(§2) Three different measurements were made in the experiments. 1. Neurite length in mm is a measure of increase in dendrite length of neurons. […] 2. neurite branching is measure of dendrite branching. […] 3. Cytolysis of the cells is a measure of cell death. […] Experimental conditions were measured relative to the results of healthy cells in the studies.
(§3) Procedure. iCell DOPA neurons were thawed and cultured following the provider's instructions in Brainphys medium+provided supplements+1% N2 supplement (Stemcell Technologies)+penicillin/streptomycin+Laminin. They were plated at 20000 cells per well of a 384 well plate (pre-coated with poly-D-lysine and Laminin) in 70 μL of growth medium. Cells were incubated at 37° C./5% CO2 in a humidified cell culture incubator. Half of the culture medium was changed twice a week.
(§4) MPP+-induced neurotoxicity: 24 hours after neuronal plating, half of the medium was removed and the test compounds were applied with MPP+ treatment, both concentrated at 4×, were added to the wells. For each condition, six aliquots were added, corresponding to columns A-F in Table 2. Except for the NT/NT row, in each row, either the compound indicated dissolved in its vehicle noted in Table 1 was added, or only a vehicle was added as indicated. Column F is an indicator of whether MPP+ was added. If not, only the medium was added.
(§5) For the evaluation of conditions 1-28, Neurite outgrowth was followed for subsequent 48 hours using an Incucyte Zoom platform with one phase contrast image every 4 hours, using a 20× objective. After 48 hours, the medium containing test compounds and MPP+ was removed and replaced by fresh medium containing a fluorescent cytolysis marker (red fluorescence) and a live cell marker (green fluorescence). For the evaluation of conditions 29-53, Neurite outgrowth was followed similarly for subsequent 72 hours after MPP+ was added.
Data was normalized to control conditions as there is basal cytolysis in the cell culture after thawing.
Fluorescently immuno-stained cells were imaged on a high content imaging platform. Individual segmentation of cells was performed by image analysis of the MAP2 and NeuN staining. The number of neurons and the neurite length were measured. The percentage of cytolyzed cells was also calculated.
(§6) Statistical analysis. We used one-way ANOVA followed by Bonferroni's multiple comparisons test.

[2] = PD patients, small double-blind placebo controlled trial; cited from earlier work
[3] = test system: human dopaminergic neurons (iCell DopaNeurons); test: MPP+-induced neurotoxicity: neurite outgrowth (neurite length, branch points) of iCell DopaNeurons, Incucyte; type: cell-based; conditions: MPP+ 100 μM
From the text: as §1
iCell DOPA neurons are neural floor plate-derived midbrain dopaminergic neurons generated from human induced pluripotent stem cells (iPSCs). Dopaminergic neurons, specifically those located in the floor plate-derived midbrain are implicated in neurological disorders such as Parkinson's disease, MSA and DLBD among others. Thus iCell DopaNeurons provide a highly relevant in vitro model to investigate these types of pathologies (42, 43). The iCellDopa neurons were supplied from FUJIFILM Cellular Dynamics.
as §2, §3, §4, §5
Each condition 1-41 and 51-53 was repeated in 8 wells of a 384 well plate, that is, each test condition studied in Table 2 was repeated eight times. NT/NT were cells in the standard medium only. Control/NT are the cells in the vehicle (as described above), with and without MPP+.
Assay endpoints and data analysis. Phase contrast images were analyzed at each time point to determine the neurite length and number of branch points per mm^2. Kinetic data was plotted and kinetics were normalized by subtracting the value of the first data point (at time of treatment), allowing to measure changes in neurite outgrowth only from the onset of the treatment, starting at zero. Area Under Curve (AUC) of kinetic data was obtained and used for plotting compound's effects and perform statistical analyzes.
as §6

For Cc1c(O)c(=O)ccn1C [DFP, Deferiprone], the “Cytolysis, %, Plate 2, Mean ± S.D.” value [1] is given as 71.91 ± 1.28%, the “substantia nigra iron deposits (MRI) and motor scores of disease progression” value [2] is given as “showed improvement” and the “Neurite Length Data, Mean ± S.D.” value ([3]; Table 5.1 (FIG. 5A), conditions 17-28, AUC of kinetic data) is given as 874.5 ± 190.4 mm/mm^2. For the same compound, the “Neurite Branching Data, Mean ± S.D.” value ([3]; Table 5.2 (FIG. 5B), conditions 17-28, AUC of kinetic data) was 24282.5 ± 6612.9 per mm^2, the “Neurite length, plate 2, Mean ± S.D.” value ([3]; Table 6.2 (FIG. 7A), followed 72 hours, PCI 30 μM) was 1303.0 ± 378.7 mm/mm^2 and the “Neurite Branching Data, Plate 2, Mean ± S.D.” value ([3]; Table 7.2 (FIG. 7B), followed 72 hours, PCI 30 μM) was 51711.3 ± 15178.4 per mm^2. For the same compound, the “effects on neurite outgrowth” value ([3]; vs MPP+ alone) was “no significant effects”.
